Experimental data taken from ChEMBL document CHEMBL6127077, “Discovery and biological evaluation of 6-aryl-4-(3,4,5-trimethoxyphenyl)quinoline derivatives with promising antitumor activities as novel colchicine-binding site inhibitors” (Eur J Med Chem, 2024).
pIC50: −log10 of the molar value. Each block holds one molecule with its values, some of them ahead of it. Calls of active or inactive are those of the source. No cut-off for these calls is given here.

Columns and labels:
SGC-7901 = assay: Antiproliferative activity against human SGC-7901 cells assessed as inhibition of cell growth incubated for 72 hrs by MTT assay; format: functional, cell-based; settings: SGC-7901, 72 h
Huh-7 [1] = assay: cells; settings: Homo sapiens, Huh-7, 72 h
Description: Antiproliferative activity against human Huh-7 cells assessed as inhibition of cell growth incubated for 72 hrs by MTT assay

MCF7 = assay: cells; settings: Homo sapiens, MCF7, 72 h
Description: Antiproliferative activity against human MCF7 cells assessed as inhibition of cell growth incubated for 72 hrs by MTT assay

[2] = Antiproliferative activity against human MCF7/ADM cells assessed as inhibition of cell growth incubated for 72 hrs by MTT assay; format: functional, cell-based
[3] = Cytotoxicity against human HUVEC cells incubated for 72 hrs by MTT assay; format: toxicity, cell-based
Tubulin (Homo sapiens) [4] = target: T1, Tubulin (Homo sapiens) (UniProt P68371+Q9H4B7+P0DPH7+P68366+Q13509+Q71U36+P04350+Q3ZCM7+P07437+P68363+Q9BQE3+Q6PEY2+Q13885+Q9BVA1+Q9BUF5); assay: Disruption of microtubule network in human Huh-7 cells assessed as shortened microtubule wrap around the nucleus incubated for 24 hrs by DAPI staining based microscopic analysis; format: cell-based; settings: dose 30-60 nM
Huh-7 [5] = assay: Induction of cell cycle arrest in human Huh-7 cells assessed as accumulation of cells at G0/G1 phase at 60 nM incubated for 30 to 60 mins by RNase/PI staining based flow cytometry analysis (reference value: 55.08%); format: functional; settings: time 30-60 min
Huh-7 [6] = assay: Induction of cell cycle arrest in human Huh-7 cells assessed as accumulation of cells at G2M phase at 60 nM incubated for 30 to 60 mins by RNase/PI staining based flow cytometry analysis (reference value: 8.38%); format: functional; settings: time 30-60 min
Huh-7 [7] = assay: Induction of cell cycle arrest in human Huh-7 cells assessed as accumulation of cells at S-phase at 60 nM incubated for 30 to 60 mins by RNase/PI staining based flow cytometry analysis (reference value: 36.54%); format: functional; settings: time 30-60 min
Huh-7 [8] = assay: Induction of cell cycle arrest in human Huh-7 cells assessed as accumulation of cells at G0/G1 phase at 90 nM incubated for 30 to 60 mins by RNase/PI staining based flow cytometry analysis (reference value: 55.08%); format: functional; settings: time 30-60 min
Huh-7 [9] = assay: Induction of cell cycle arrest in human Huh-7 cells assessed as accumulation of cells at G2M phase at 90 nM incubated for 30 to 60 mins by RNase/PI staining based flow cytometry analysis (reference value: 8.38%); format: functional; settings: time 30-60 min
Huh-7 [10] = assay: Induction of cell cycle arrest in human Huh-7 cells assessed as accumulation of cells at S-phase at 90 nM incubated for 30 to 60 mins by RNase/PI staining based flow cytometry analysis (reference value: 36.54%); format: functional; settings: time 30-60 min
Huh-7 [11] = assay: Induction of cell cycle arrest in human Huh-7 cells assessed as accumulation of cells at G0/G1 phase at 120 nM incubated for 30 to 60 mins by RNase/PI staining based flow cytometry analysis (reference value: 55.08%); format: functional; settings: time 30-60 min
Huh-7 [12] = assay: Induction of cell cycle arrest in human Huh-7 cells assessed as accumulation of cells at G2M phase at 120 nM incubated for 30 to 60 mins by RNase/PI staining based flow cytometry analysis (reference value: 8.38%); format: functional; settings: time 30-60 min
Huh-7 [13] = assay: Induction of cell cycle arrest in human Huh-7 cells assessed as accumulation of cells at S-phase at 120 nM incubated for 30 to 60 mins by RNase/PI staining based flow cytometry analysis (reference value: 36.54%); format: functional; settings: time 30-60 min
Huh-7 [14] = assay: Induction of apoptosis in human Huh-7 cells assessed as viable cells at 60 nM incubated for 48 hrs by Annexin-V/PI staining based flow cytometry analysis (reference value: 94.8%); format: functional; settings: read-out: Activity
Huh-7 [15] = assay: Induction of apoptosis in human Huh-7 cells assessed as early apoptotic cells at 60 nM incubated for 48 hrs by Annexin-V/PI staining based flow cytometry analysis (reference value: 0.56%); format: functional
Huh-7 [16] = assay: Induction of apoptosis in human Huh-7 cells assessed as late apoptotic cells at 60 nM incubated for 48 hrs by Annexin-V/PI staining based flow cytometry analysis (reference value: 4.06%); format: functional
Huh-7 [17] = assay: Induction of apoptosis in human Huh-7 cells assessed as necrotic cells at 60 nM incubated for 48 hrs by Annexin-V/PI staining based flow cytometry analysis (reference value: 0.60%); format: functional
Huh-7 [18] = assay: Induction of apoptosis in human Huh-7 cells assessed as viable cells at 90 nM incubated for 48 hrs by Annexin-V/PI staining based flow cytometry analysis (reference value: 94.8%); format: functional; settings: read-out: Activity
Huh-7 [19] = assay: Induction of apoptosis in human Huh-7 cells assessed as early apoptotic cells at 90 nM incubated for 48 hrs by Annexin-V/PI staining based flow cytometry analysis (reference value: 0.56%); format: functional
Huh-7 [20] = assay: Induction of apoptosis in human Huh-7 cells assessed as late apoptotic cells at 90 nM incubated for 48 hrs by Annexin-V/PI staining based flow cytometry analysis (reference value: 4.06%); format: functional
Huh-7 [21] = assay: Induction of apoptosis in human Huh-7 cells assessed as necrotic cells at 90 nM incubated for 48 hrs by Annexin-V/PI staining based flow cytometry analysis (reference value: 0.60%); format: functional
Huh-7 [22] = assay: Induction of apoptosis in human Huh-7 cells assessed as viable cells at 120 nM incubated for 48 hrs by Annexin-V/PI staining based flow cytometry analysis (reference value: 94.8%); format: functional; settings: read-out: Activity
Huh-7 [23] = assay: Induction of apoptosis in human Huh-7 cells assessed as early apoptotic cells at 120 nM incubated for 48 hrs by Annexin-V/PI staining based flow cytometry analysis (reference value: 0.56%); format: functional
Huh-7 [24] = assay: Induction of apoptosis in human Huh-7 cells assessed as late apoptotic cells at 120 nM incubated for 48 hrs by Annexin-V/PI staining based flow cytometry analysis (reference value: 4.06%); format: functional
Huh-7 [25] = assay: Induction of apoptosis in human Huh-7 cells assessed as necrotic cells at 120 nM incubated for 48 hrs by Annexin-V/PI staining based flow cytometry analysis (reference value: 0.60%); format: functional
Tubulin (Homo sapiens) [26] = target: T1, Tubulin (Homo sapiens); assay: Inhibition of tubulin polymerization (unknown origin) at 3 to 5 uM by infinite F500 microplate reader analysis; format: protein-complex assay; settings: dose 3-5 µM
Tubulin (Homo sapiens) [27] = target: T1, Tubulin (Homo sapiens); assay: Inhibition of tubulin polymerization (unknown origin) by infinite F500 microplate reader analysis; format: protein-complex assay; settings: dose 3-5 µM
Tubulin (Homo sapiens) [28] = target: T1, Tubulin (Homo sapiens); assay: Binding affinity to Tubulin (unknown origin) colchicine binding site assessed as reduction in colchicine-tubulin complex formation by Fluorescence based analysis; format: protein-complex assay; settings: dose 2-6 µM
Huh-7 [29] = assay: Antitumor activity against human Huh-7 cells xenografted in male BALB/c mouse at 15 mg/kg, ip administered every 2 days for 2 weeks; format: functional, organism-based
[30] = Toxicity in male BALB/c mouse assessed as body weight loss at 15 mg/kg, ip administered every 2 days for 2 weeks; format: organism-based; settings: in vivo, 336 h
[31] = Toxicity in male BALB/c mouse assessed as liver damage at 15 mg/kg, ip administered every 2 days for 2 weeks by H and E staining based analysis; format: organism-based; settings: in vivo, 336 h

Structure (SMILES): COc1cc(-c2ccnc3ccc(-c4ccc([N+](=O)[O-])cc4)cc23)cc(OC)c1OC
- pIC50 (SGC-7901): 4.69
- pIC50 (Huh-7 [1]): 5.09
- pIC50 (MCF7): < 4.00

Structure (SMILES): COc1ccc(/C=C\c2cc(OC)c(OC)c(OC)c2)cc1O [COMBRETASTATIN A4]
- pIC50 (SGC-7901): 6.92
- pIC50 [2]: 5.70
- IC50 at 72 h [3]: 320 nM
- Activity (Tubulin (Homo sapiens) [4]): Dose-Dependent Effect
- pIC50 (Huh-7 [1]): 7.10
- pIC50 (MCF7): 7.06

Structure (SMILES): COc1ccc(-c2ccc3nccc(-c4cc(OC)c(OC)c(OC)c4)c3c2)cc1OC
- pIC50 (SGC-7901): 6.06
- pIC50 (Huh-7 [1]): 7.10
- pIC50 (MCF7): 6.02

Structure (SMILES): COc1cc(-c2ccnc3ccc(-c4ccc5ccccc5c4)cc23)cc(OC)c1OC
- pIC50 (SGC-7901): 5.87
- pIC50 (Huh-7 [1]): 5.35
- pIC50 (MCF7): < 4.00

Structure (SMILES): COc1cc(-c2ccnc3ccc(-c4cccc5[nH]ccc45)cc23)cc(OC)c1OC
- pIC50 (SGC-7901): 6.74
- pIC50 [2]: 6.28
- IC50 at 72 h [3]: 5820 nM
- Activity (Huh-7 [5]): 53.2%
- Activity (Huh-7 [6]): 9.39%
- Activity (Huh-7 [7]): 37.41%
- Activity (Huh-7 [8]): 47.21%
- Activity (Huh-7 [9]): 28.14%
- Activity (Huh-7 [10]): 24.65%
- Activity (Huh-7 [11]): 9.25%
- Activity (Huh-7 [12]): 48.72%
- Activity (Huh-7 [13]): 42.03%
- viability at 0.06 µM (Huh-7 [14]): 91.1%
- Activity (Huh-7 [15]): 1.05%
- Activity (Huh-7 [16]): 6.27%
- Activity (Huh-7 [17]): 1.58%
- viability at 0.09 µM (Huh-7 [18]): 72.5%
- Activity (Huh-7 [19]): 4.05%
- Activity (Huh-7 [20]): 20.1%
- Activity (Huh-7 [21]): 3.39%
- viability at 0.12 µM (Huh-7 [22]): 63.5%
- Activity (Huh-7 [23]): 4.73%
- Activity (Huh-7 [24]): 29.3%
- Activity (Huh-7 [25]): 2.45%
- inhibition (Tubulin (Homo sapiens) [26]): Active
- inhibition (Tubulin (Homo sapiens) [27]): Dose-Dependent Effect
- Activity (Tubulin (Homo sapiens) [28]): Dose-Dependent Effect
- Activity (Tubulin (Homo sapiens) [4]): Dose-Dependent Effect
- Activity (Huh-7 [29]): Active
- Activity [30]: Non-Toxic
- Activity [31]: Non-Toxic
- pIC50 (Huh-7 [1]): 7.52
- pIC50 (MCF7): 6.89

Structure (SMILES): COc1cccc(-c2ccc3nccc(-c4cc(OC)c(OC)c(OC)c4)c3c2)c1
- pIC50 (SGC-7901): 5.11
- pIC50 (Huh-7 [1]): 5.47
- pIC50 (MCF7): 4.76

Structure (SMILES): CCOc1ccc(-c2ccc3nccc(-c4cc(OC)c(OC)c(OC)c4)c3c2)cc1
- pIC50 (SGC-7901): 5.41
- pIC50 (Huh-7 [1]): 6.38
- pIC50 (MCF7): 5.51

The next lines start with the values.

- pIC50 (SGC-7901): 4.92
- pIC50 (Huh-7 [1]): 5.34
- pIC50 (MCF7): 4.79
Structure (SMILES): COc1cc(-c2ccnc3ccc(-c4ccc(Cl)cc4)cc23)cc(OC)c1OC

- pIC50 (SGC-7901): 5.86
- pIC50 (Huh-7 [1]): 7.40
- pIC50 (MCF7): 6.48
Structure (SMILES): COc1ccc(-c2ccc3nccc(-c4cc(OC)c(OC)c(OC)c4)c3c2)cc1

- pIC50 (SGC-7901): 6.22
- pIC50 (Huh-7 [1]): 5.94
- pIC50 (MCF7): 5.87
Structure (SMILES): COc1cc(-c2ccnc3ccc(-c4ccc(C)cc4)cc23)cc(OC)c1OC

- pIC50 (SGC-7901): 4.98
- pIC50 (Huh-7 [1]): 5.29
- pIC50 (MCF7): 4.77
Structure (SMILES): COc1cc(-c2ccnc3ccc(-c4ccc(F)cc4)cc23)cc(OC)c1OC

- pIC50 (SGC-7901): 5.13
- pIC50 (Huh-7 [1]): 5.47
- pIC50 (MCF7): < 4.00
Structure (SMILES): COc1cc(-c2ccnc3ccc(-c4ccc(C#N)cc4)cc23)cc(OC)c1OC
